The values that follow come from the supplement of paper PMC10949913.

Common to all, as to conditions: 48 h
For experiment [1], the system named is CU-ACC2. Briefly: AC50 viability; higher = less potent. In outline: (§1)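 Library compounds were dispensed at 11 concentrations (23 nL each) onto three adrenocortical carcinoma cell lines in 1,536-well plates. Luminescence was recorded after 48 h using CellTiter-Glo, and signals were normalised per plate to vehicle and empty-well controls. Fitted concentration-response curves of inhibitory or non-responding classes only supplied the AC50 and area under the curve.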

The subject of experiment [2] is CU-ACC2. The experiment in a line: area under concentration-response curve (viability) (AUC (a.u.)); higher = less active. In outline: as §1
Experiment [3] concerns CU-ACC1. The experiment in a line: AC50 viability; higher = less potent. In outline:
as §1

Experiment [4] relates to NCI-H295R. The experiment in a line: AC50 viability; higher = less potent. In outline:
as §1

In experiment [5] the test system is CU-ACC1. Briefly: area under concentration-response curve (viability) (AUC (a.u.)); higher = less active. In outline: as §1
In experiment [6] the test system is NCI-H295R. Described as above. In outline: as §1

Molecule `O=C(Nc1cc(Cl)cc2c1[nH]c1cnccc12)c1cccnc1` gave an AC50 viability in experiment [1] of 0.182 µM. The “area under concentration-response curve” value in experiment [2] is 402.
In the same order, the values of `CC1(C)CC[C@@]2(CC[C@]3(C)[C@@H]([C@@H]2C1)C(=O)\C=C\4[C@@]3(C)CC[C@H]5C(C)(C)C(=O)\C(=C/[C@]45C)C#N)NC(=O)C(C)(F)F` are 23.5 µM and 606.
For `Clc1ccc(C(Cn2ccnc2)OCc2ccc(Sc3ccccc3)cc2)c(Cl)c1` (stereo not drawn) the same measures were 23.5 µM and 528.
For `CN1CCN(c2cccc(Nc3nc4c(-c5ccc([S+](C)(=O)[O-])cc5)cccn4n3)c2)CC1`, in experiment [1], the AC50 viability was found to be 20.9 µM. Also, the “area under concentration-response curve” value in experiment [2] was 552.
The molecule `CN(C)c1ccc2nc3ccc(N(C)C)cc3[s+]c2c1.[Cl-]` returned an AC50 viability in experiment [1] of 20.9 µM. In addition, the “area under concentration-response curve” value in experiment [2] stood at 482.
In the same order, the values of `C=CC(=O)Nc1cccc(C)c1Nc1ncc2cc(-c3c(Cl)c(OC)cc(OC)c3Cl)ccc2n1` are 6.61 µM and 475.
For `C[S+](=O)([O-])c1cccc(CNc2nc(Nc3ccc4c(c3)CCC(=O)N4)ncc2C(F)(F)F)c1` the same measures were 23.5 µM and 467.
For `COc1c(Cl)cc2c([nH]c3cnccc32)c1NC(=O)c1cccnc1C` the same measures were 7.42 µM and 374.
Regarding `CCNC1(C(N)=O)CCN(c2ncnc3c2nc(-c2ccccc2Cl)n3-c2ccc(Cl)cc2)CC1`, the AC50 viability in experiment [1] is 0.295 µM. For the same molecule, the “area under concentration-response curve” value in experiment [2] was determined as 330.
For `O=C(O)[C@H](Cc1c[nH]c2ccccc12)N1C(=O)c2ccccc2C1=O` the same measures were 37.2 µM and 338.
In the same order, the values of `CN1CCN(CC1)\C2=N\C3=C(NC4=C2C=CC=C4)C=CC(=C3)Cl` are 33.2 µM and 398.
In the same order, the values of `COc1cc2nc(-c3ccc(N4CCN(C)CC4)cc3)nc(NCCN3CCOCC3)c2cc1OC` are 3.72 µM and 397.
With `N#CCNC(=O)c1ccc(-c2ccnc(Nc3ccc(N4CCOCC4)cc3)n2)cc1`, the AC50 viability in experiment [1] is 14.8 µM. In addition, the “area under concentration-response curve” value in experiment [2] worked out at 514.
In the same order, the values of `CCOc1cc2ncc(C#N)c(Nc3ccc(F)c(Cl)c3)c2cc1NC(=O)/C=C/CN(C)C` are 8.33 µM and 419.
With `CCC[C@H](NC(=O)[C@@H]1[C@H]2CCC[C@H]2CN1C(=O)[C@@H](NC(=O)[C@@H](NC(=O)c1cnccn1)C1CCCCC1)C(C)(C)C)C(=O)C(=O)NC1CC1`, the AC50 viability in experiment [3] is 0.00105 µM; in experiment [4] it was 33.2 µM. Further, the “area under concentration-response curve” value in experiment [2] was 299; in experiment [5], 333; in experiment [6] it was 285.
For `O=C(CCCCCCC(=O)Nc1cccnc1)NO` the same measures were 9.34 µM, 13.2 µM, 589, 489 and 533.
In the same order, the values of `CCN(CCO)CCCOc1ccc2c(Nc3cc(CC(=O)Nc4cccc(F)c4)[nH]n3)ncnc2c1` are 23.5 µM, 16.6 µM, 569, 390 and 483.
For `NC1=NC=C(C=C1)C2=CC=C3N=CC\4=C(N(C(=O)\C=C4)C5=CC(=CC=C5)C(F)(F)F)C3=C2`, the results for the AC50 viability in experiment [3] and in experiment [4] were 0.235 µM and 0.0833 µM, respectively. For the same molecule, the entries for the “area under concentration-response curve” value in experiment [2], in experiment [5] and in experiment [6] were 387, 314 and 294, respectively.
For the molecule `O=C1NC(=O)[C@@H](c2c[nH]c3ccccc23)[C@H]1c1cn2c3c(cccc13)CCC2`, the values for the AC50 viability in experiment [3] and in experiment [4] were 20.9 µM and 0.59 µM, respectively. For the same molecule, the “area under concentration-response curve” value in experiment [2] was found to be 611; in experiment [5], 494; in experiment [6] it was 504.
As for `CC1(C)OCCn2c1nc1c(N3CCOCC3)nc(-c3cnc(N)nc3)nc12`, the AC50 viability in experiment [3] turned out to be 1.18 µM; in experiment [4], 1.86 µM. The figures for the “area under concentration-response curve” value in experiment [2], in experiment [5] and in experiment [6] were 500, 395 and 430, respectively.
In the same order, the values of `N=C(N)c1ccc(OCCCCCOc2ccc(C(=N)N)cc2)cc1` are 13.2 µM, 14.8 µM, 561, 437 and 453.
In the same order, the values of `COc1cc(OC2CCN(C)CC2)ccc1Nc1ncc2c(n1)n(C1CCCC1)c(=O)n2C` are 26.3 µM, 23.5 µM, 619, 447 and 528.
